30 molecules from US12297190B2, “Modulators of STING (stimulator of interferon genes)” (PFIZER INC., priority 2019, dated 2025) can be followed below.

The structures appear in SMILES notation. pKi: −log10 of the molar value.

By pKi is commonly meant the Ki on a negative log10 scale, so that one unit is a factor of ten.

Sequence of R232-STING (Q86WV6 155-341 H232R): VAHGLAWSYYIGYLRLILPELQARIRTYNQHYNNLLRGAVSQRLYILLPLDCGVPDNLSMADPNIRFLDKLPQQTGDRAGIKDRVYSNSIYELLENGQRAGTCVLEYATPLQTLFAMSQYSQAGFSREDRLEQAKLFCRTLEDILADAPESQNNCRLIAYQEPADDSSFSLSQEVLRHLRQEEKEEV

This assay addresses R232-STING (Homo sapiens, UniProt Q86WV6, H232R). The assay is described as follows: biochemical.
As for `CCn1nc(C)cc1-c1n[nH]c(-c2cc(C(N)=O)cc3c2cnn3CCN2C[C@H](C)OC[C@H]2C)n1` (racemic) [ZZZ089, 1-{2-[(2S,5R)-2,5-dimethylmorpholin-4-yl]ethyl}-4-[3-(1-ethyl-3-methyl-1H-pyrazol-5-yl)-1H-1,2,4-triazol-5-yl]-1H-indazole-6-carboxamide], the pKi was 6.04.

In turn, `CCn1nc(C)cc1-c1n[nH]c(-c2cc(C(N)=O)cc3c2cnn3CCN2C[C@@H](C)OC[C@H]2C)n1` [ZZZ097, 1-{2-[(2R,5R)-2,5-dimethylmorpholin-4-yl]ethyl}-4-[3-(1-ethyl-3-methyl-1H-pyrazol-5-yl)-1H-1,2,4-triazol-5-yl]-1H-indazole-6-carboxamide] gave a pKi of 6.18. This pKi and that of the molecule before are within 0.2 log units of each other.

Molecule `CCn1nc(C)cc1-c1nnc(-c2c(C(F)F)c(C(N)=O)cc3c2cnn3C)[nH]1` [ZZZ011, 5-(difluoromethyl)-4-[5-(1-ethyl-3-methyl-1H-pyrazol-5-yl)-4H-1,2,4-triazol-3-yl]-1-methyl-1H-indazole-6-carboxamide] gave a pKi below 6.57.

The molecule `CCn1nc(C)cc1-c1n[nH]c(-c2cc(C(N)=O)cc3c2cnn3CCN2CC[C@@H](O)C2)n1` [ZZZ107, 4-[3-(1-ethyl-3-methyl-1H-pyrazol-5-yl)-1H-1,2,4-triazol-5-yl]-1-{2-[(3R)-3-hydroxypyrrolidin-1-yl]ethyl}-1H-indazole-6-carboxamide] showed a pKi below 6.00.

`CCn1nc(C)cc1-c1nnc(-c2cc(C(N)=O)cc3c2cnn3[C@H]2CCCNC2)[nH]1` (racemic) [ZZZ069, 4-[5-(1-ethyl-3-methyl-1H-pyrazol-5-yl)-4H-1,2,4-triazol-3-yl]-1-[(3S)-piperidin-3-yl]-1H-indazole-6-carboxamide]: the negative logarithm of the Ki (pKi) is below 6.00.

The molecule `CCn1nc(C)cc1-c1n[nH]c(-c2cc(C(N)=O)cc3c2cnn3CCN2CC(O)C2)n1` [ZZZ100, 4-[3-(1-ethyl-3-methyl-1H-pyrazol-5-yl)-1H-1,2,4-triazol-5-yl]-1-[2-(3-hydroxyazetidin-1-yl)ethyl]-1H-indazole-6-carboxamide] gave a pKi of 6.07.

On to `CCn1nc(C)cc1-c1nnc(-c2cc(C(N)=O)cc3c2cnn3[C@H]2CC[C@@H](NC)CC2)[nH]1` [ZZZ075, 4-[5-(1-ethyl-3-methyl-1H-pyrazol-5-yl)-4H-1,2,4-triazol-3-yl]-1-[(1s,4s)-4-(methylamino)cyclohexyl]-1H-indazole-6-carboxamide], for which the negative-log Ki (pKi) is 6.02.

Turning to `CCn1nc(C)c(I)c1-c1nnc(-c2cc(C(N)=O)cc3c2cnn3C)[nH]1` [ZZZ053, 4-[5-(1-ethyl-4-iodo-3-methyl-1H-pyrazol-5-yl)-4H-1,2,4-triazol-3-yl]-1-methyl-1H-indazole-6-carboxamide], the pKi is below 6.00.

For `CCn1nc(C)cc1-c1nnc(-c2cc(C(N)=O)cc3c2cnn3[C@@H](C)CN2CCCC2)[nH]1` [ZZZ024, 4-[5-(1-ethyl-3-methyl-1H-pyrazol-5-yl)-4H-1,2,4-triazol-3-yl]-1-[(2S)-1-(pyrrolidin-1-yl)propan-2-yl]-1H-indazole-6-carboxamide], the pKi is below 6.00.

`CCn1nc(C)cc1-c1nnc(-c2cc(C(N)=O)cc3c2cnn3[C@H]2CCCNC2)[nH]1` [ZZZ061, 4-[5-(1-ethyl-3-methyl-1H-pyrazol-5-yl)-4H-1,2,4-triazol-3-yl]-1-[(3S)-piperidin-3-yl]-1H-indazole-6-carboxamide] showed a pKi of 6.05.

`CCn1nc(C)cc1-c1nnc(-c2cc(C(N)=O)cc3c2cnn3CC[C@H]2CCCCN2C)[nH]1` (racemic) [ZZZ023, 4-[5-(1-ethyl-3-methyl-1H-pyrazol-5-yl)-4H-1,2,4-triazol-3-yl]-1-{2-[(2R)-1-methylpiperidin-2-yl]ethyl}-1H-indazole-6-carboxamide] showed a pKi below 6.00.

`CCn1nc(C)cc1-c1nnc(-c2cc(C(N)=O)cc3c2cnn3C[C@H](C)C2CCNCC2)[nH]1` [ZZZ078, 4-[5-(1-ethyl-3-methyl-1H-pyrazol-5-yl)-4H-1,2,4-triazol-3-yl]-1-[(2R)-2-(piperidin-4-yl)propyl]-1H-indazole-6-carboxamide] had a pKi of 6.19.

The molecule `CCn1nc(C)cc1-c1nnc(-c2cc(C(N)=O)cc3[nH]ncc23)[nH]1` [ZZZ001, 4-[5-(1-ethyl-3-methyl-1H-pyrazol-5-yl)-4H-1,2,4-triazol-3-yl]-1H-indazole-6-carboxamide] gave a pKi below 6.00.

In the case of `CCn1nc(CO)cc1-c1cnc(-c2cc(C(N)=O)cc3c2cnn3C)[nH]1` [ZZZ122, 4-{5-[1-ethyl-3-(hydroxymethyl)-1H-pyrazol-5-yl]-1H-imidazol-2-yl}-1-methyl-1H-indazole-6-carboxamide], the pKi was below 6.05.

`CCN(CCC#N)CCn1ncc2c(-c3nc(-c4cc(C)nn4CC)n[nH]3)cc(C(N)=O)cc21` [ZZZ104, 1-{2-[(2-cyanoethyl)(ethyl)amino]ethyl}-4-[3-(1-ethyl-3-methyl-1H-pyrazol-5-yl)-1H-1,2,4-triazol-5-yl]-1H-indazole-6-carboxamide] had a pKi of 6.09.

In turn, `CCn1nc(C)cc1-c1nnc(-c2cc(C(N)=O)cc3c2cnn3CCN2CCC2)[nH]1` [ZZZ039, 1-[2-(azetidin-1-yl)ethyl]-4-[5-(1-ethyl-3-methyl-1H-pyrazol-5-yl)-4H-1,2,4-triazol-3-yl]-1H-indazole-6-carboxamide] gave a pKi below 6.00.

Consider `CCn1nc(C(=O)O)cc1-c1nc(-c2nc(C(N)=O)cc3c2cnn3C)n(C)n1` [ZZZ083, 5-[5-(6-carbamoyl-1-methyl-1H-pyrazolo[4,3-c]pyridin-4-yl)-1-methyl-1H-1,2,4-triazol-3-yl]-1-ethyl-1H-pyrazole-3-carboxylic acid], for which the pKi was below 6.57.

The molecule `CCn1nc(C)cc1-c1n[nH]c(-c2cc(C(N)=O)cc3c2cnn3CCN(C)CC#N)n1` [ZZZ101, 1-{2-[(cyanomethyl)(methyl)amino]ethyl}-4-[3-(1-ethyl-3-methyl-1H-pyrazol-5-yl)-1H-1,2,4-triazol-5-yl]-1H-indazole-6-carboxamide] had a pKi of 6.29.

On to `CCn1nc(C(=O)O)cc1-c1n[nH]c(-c2nc(C(N)=O)cc3c2cnn3C)n1` [ZZZ004, 5-[5-(6-carbamoyl-1-methyl-1H-pyrazolo[4,3-c]pyridin-4-yl)-1H-1,2,4-triazol-3-yl]-1-ethyl-1H-pyrazole-3-carboxylic acid], for which the pKi is below 7.05.

In turn, `CCn1nc(C)cc1-c1n[nH]c(-c2cc(C(N)=O)cc3c2cnn3CCN(C)CCO)n1` [ZZZ109, 4-[3-(1-ethyl-3-methyl-1H-pyrazol-5-yl)-1H-1,2,4-triazol-5-yl]-1-{2-[(2-hydroxyethyl)(methyl)amino]ethyl}-1H-indazole-6-carboxamide] showed a pKi of 6.02.

`CCn1nc(C)cc1-c1nnc(-c2cc(C(N)=O)cc3c2cnn3C[C@@H](C)N(C)C)[nH]1` [ZZZ015, 1-[(2R)-2-(dimethylamino)propyl]-4-[5-(1-ethyl-3-methyl-1H-pyrazol-5-yl)-4H-1,2,4-triazol-3-yl]-1H-indazole-6-carboxamide] gave a pKi below 6.00.

In turn, `CCn1nc(C)cc1-c1n[nH]c(-c2cc(C(N)=O)cc3c2cnn3CCN2CCOC[C@H]2CO)n1` [ZZZ120, 4-[3-(1-ethyl-3-methyl-1H-pyrazol-5-yl)-1H-1,2,4-triazol-5-yl]-1-{2-[(3R)-3-(hydroxymethyl)morpholin-4-yl]ethyl}-1H-indazole-6-carboxamide] gave a pKi of 6.04.

Molecule `CCn1nc(C)cc1-c1nnc(-c2cc(C(N)=O)cc3c2cnn3C[C@H]2C[C@H]3CC[C@@H](C2)N3)[nH]1` [ZZZ065, 1-{[(1R,3r,5S)-8-azabicyclo[3.2.1]octan-3-yl]methyl}-4-[5-(1-ethyl-3-methyl-1H-pyrazol-5-yl)-4H-1,2,4-triazol-3-yl]-1H-indazole-6-carboxamide] showed a pKi of 6.02.

`CCn1nc(C)cc1-c1nnc(-c2c(C(F)(F)F)c(C(N)=O)cc3c2cnn3C)[nH]1` [ZZZ044, 4-[5-(1-ethyl-3-methyl-1H-pyrazol-5-yl)-4H-1,2,4-triazol-3-yl]-1-methyl-5-(trifluoromethyl)-1H-indazole-6-carboxamide] had a pKi below 6.05.

With `CCn1nc(C)cc1-c1nnc(-c2cc(C(N)=O)cc3c2cnn3CC2CC3CNCC3C2)[nH]1` (stereo not drawn) [ZZZ074, 4-[5-(1-ethyl-3-methyl-1H-pyrazol-5-yl)-4H-1,2,4-triazol-3-yl]-1-[(octahydrocyclopenta[c]pyrrol-5-yl)methyl]-1H-indazole-6-carboxamide], the pKi is below 6.00.

`CCn1nc(C)cc1-c1nnc(-c2cc(C(N)=O)cc3c2cnn3CCN2CC(C)C2)[nH]1` [ZZZ036, 4-[5-(1-ethyl-3-methyl-1H-pyrazol-5-yl)-4H-1,2,4-triazol-3-yl]-1-[2-(3-methylazetidin-1-yl)ethyl]-1H-indazole-6-carboxamide] had a pKi below 6.00.

`CCn1nc(C)cc1-c1nnc(-c2cc(C(N)=O)cc3c2cnn3[C@@H](C)CN(C)C)[nH]1` [ZZZ020, 1-[(2S)-1-(dimethylamino)propan-2-yl]-4-[5-(1-ethyl-3-methyl-1H-pyrazol-5-yl)-4H-1,2,4-triazol-3-yl]-1H-indazole-6-carboxamide] showed a pKi below 6.00.

For `CCn1nc(C)cc1-c1n[nH]c(-c2cc(C(N)=O)cc3c2cnn3CCN2CCO[C@@H](C3CC3)C2)n1` (racemic) [ZZZ117, 1-{2-[(2S)-2-cyclopropylmorpholin-4-yl]ethyl}-4-[3-(1-ethyl-3-methyl-1H-pyrazol-5-yl)-1H-1,2,4-triazol-5-yl]-1H-indazole-6-carboxamide], the pKi is 6.07.

Turning to `CCn1nc(C)cc1-c1nnc(-c2cc(C(N)=O)cc3c2cnn3C[C@H]2[C@@H]3CN(C(C)C)C[C@@H]32)[nH]1` [ZZZ017, 4-[5-(1-ethyl-3-methyl-1H-pyrazol-5-yl)-4H-1,2,4-triazol-3-yl]-1-{[(1R,5S,6r)-3-(propan-2-yl)-3-azabicyclo[3.1.0]hexan-6-yl]methyl}-1H-indazole-6-carboxamide], the pKi is below 6.00.

Molecule `CCn1nc(C)cc1-c1nnc(-c2cc(C(N)=O)cc3c2cnn3CCOCCN(C)C)[nH]1` [ZZZ021, 1-{2-[2-(dimethylamino)ethoxy]ethyl}-4-[5-(1-ethyl-3-methyl-1H-pyrazol-5-yl)-4H-1,2,4-triazol-3-yl]-1H-indazole-6-carboxamide] had a negative-log Ki (pKi) below 6.00.
